Patent US12458621B1, “Application of genipin beta-methyl derivative gen-17 in preparation of drug for prevention and treatment of acute severe pneumonia” (KUNMING MEDICAL UNIVERSITY, priority 2024, dated 2025)

Experiments:
Format in all cases: in vivo, Kunming mice
[1] = system: p38 phosphorylated protein; assay: p38 phosphorylated protein in lung tissue by WB
Experimental: (§1) A total of 144 SPF-grade healthy Kunming mice, aged 5-7 weeks and weighing 18-22 g, are weighed and randomly allocated into six experimental groups: control group (NS), model group (LPS), dexamethasone group (DEX, […] per kilogram abbreviated as mg/kg), genipin beta-methyl derivative low-dose group (12.5 mg/kg), genipin beta-methyl derivative medium-dose group (25 mg/kg), and genipin beta-methyl derivative high-dose group (50 mg/kg), 24 animals per group, in which 12 animals are used to take lung tissue for the detection of other indicators, and another 12 animals are used to collect BALF.
(§2) All mice are gavaged with a same volume of 0.9% normal saline once a day in the NS group and the LPS group, DEX solution (0.39 mg/kg) is gavaged once a day in the DEX group, low-dose Gen-17 solution (12.5 mg/kg) is gavaged once a day in the medium-dose Gen-17 group, medium-dose Gen-17 solution (25 mg/kg) is gavaged once a day in the high-dose Gen-17 group, and high-dose Gen-17 solution (50 mg/kg) is gavaged once a day in the high-dose Gen-17 group. The dosage is converted according to the weight of the mice, and the gavage volume is 20 milliliters per kilogram (mL/kg), and the gavage is continued for 3 days. […]
(§3) Samples are collected 24 hours after the animal model is established. […] Lung tissues are collected and the whole lung wet weight is measured. […] After tidying, the lungs are photographed, excess tissues such as the trachea are cleared away, and the wet weight of the whole lung is measured to calculate the lung index. • (3) The upper lobe of the left lung is fixed in 4% neutral paraformaldehyde, fixed for 24 hours, paraffin-embedded and sectioned for HE staining. • (4) The remaining lung tissues are put into centrifugal tubes separately, quickly frozen in liquid nitrogen, and then stored at −80° C. after the experiment, which is used for the detection of MDA, SOD, western blotting (WB) and reverse transcription polymerase chain reaction (RT-PCR). […]
The lung tissue is taken out from −80° C., and its weight is accurately measured. […]

HO-1 = HO-1 gene expression in lung tissue by qRT-PCR
Experimental: as §1, with “BALF. […]” for “BALF.”
as §3

IL-6 = IL-6 content in BALF by ELISA
Experimental: as §1
as §2, with “days. One hour after the gavage on the third day, the ALI model is established by tracheal instillation of LPS solution.” for “days.”

SOD = SOD activity in lung tissue; settings: compared with LPS group
Experimental: The dosage is converted according to the weight of the mice, and the gavage volume is 20 milliliters per kilogram (mL/kg), and the gavage is continued for 3 days. One hour after the gavage on the third day, the ALI model is established by tracheal instillation of LPS solution. […] After the mice are awake, they are raised as usual. 2.3 Treatment of Experimental Animals and Collection of Lung Tissue Specimens
(§4) Samples are collected 24 hours after the animal model is established. The mice are weighed and 12 mice in each group are sacrificed. Lung tissues are collected and the whole lung wet weight is measured. […] After tidying, the lungs are photographed, excess tissues such as the trachea are cleared away, and the wet weight of the whole lung is measured to calculate the lung index. • (3) The upper lobe of the left lung is fixed in 4% neutral paraformaldehyde, fixed for 24 hours, paraffin-embedded and sectioned for HE staining. • (4) The remaining lung tissues are put into centrifugal tubes separately, quickly frozen in liquid nitrogen, and then stored at −80° C. after the experiment, which is used for the detection of MDA, SOD, western blotting (WB) and reverse transcription polymerase chain reaction (RT-PCR). […]
The lung tissue is taken out from −80° C., and its weight is accurately measured.

TNF-α = TNF-α content in BALF by ELISA
Experimental: as §1
as §2, with “days. One hour after the gavage on the third day, the ALI model is established by tracheal instillation of LPS solution.” for “days.”

LPS-induced ALI mice [2] = assay: Total protein concentration in BALF by BCA; settings: compared with LPS group (P<0.05)
Experimental: as §1
All mice are gavaged with a same volume of 0.9% normal saline once a day in the NS group and the LPS group, DEX solution (0.39 mg/kg) is gavaged once a day in the DEX group, low-dose Gen-17 solution (12.5 mg/kg) is gavaged once a day in the medium-dose Gen-17 group, medium-dose Gen-17 solution (25 mg/kg) is gavaged once a day in the high-dose Gen-17 group, and high-dose Gen-17 solution (50 mg/kg) is gavaged once a day in the high-dose Gen-17 group. The dosage is converted according to the weight of the mice, and the gavage volume is 20 milliliters per kilogram (mL/kg), and the gavage is continued for 3 days. One hour after the gavage on the third day, the ALI model is established by tracheal instillation of LPS solution. The specific experimental procedures are as follows. • (1) Before the operation, the mice are anesthetized by intraperitoneal injection of 1% sodium pentobarbital (30 mg/kg) according to their body weight. • (2) Limbs of anesthetized mice are fixed with rubber bands, teeth are wired with thin threads, and neck skin is disinfected with 75% alcohol. • (3) A subcutaneous tissue is separated along a longitudinal incision in a middle of the mouse neck until a cartilage ring appeared in an exposed trachea. • (4) A microinjector is inserted into the trachea in parallel towards a proximal end for about 1 centimeter (cm). […]

LPS-induced ALI mice [3] = assay: Lung index (lung wet weight/body weight), LPS-induced ALI mice
Experimental: as §1
All mice are gavaged with a same volume of 0.9% normal saline once a day in the NS group and the LPS group, DEX solution (0.39 mg/kg) is gavaged once a day in the DEX group, low-dose Gen-17 solution (12.5 mg/kg) is gavaged once a day in the medium-dose Gen-17 group, medium-dose Gen-17 solution (25 mg/kg) is gavaged once a day in the high-dose Gen-17 group, and high-dose Gen-17 solution (50 mg/kg) is gavaged once a day in the high-dose Gen-17 group. The dosage is converted according to the weight of the mice, and the gavage volume is 20 milliliters per kilogram (mL/kg), and the gavage is continued for 3 days. One hour after the gavage on the third day, the ALI model is established by tracheal instillation of LPS solution. The specific experimental procedures are as follows. • (1) Before the operation, the mice are anesthetized by intraperitoneal injection of 1% sodium pentobarbital (30 mg/kg) according to their body weight. • (2) Limbs of anesthetized mice are fixed with rubber bands, teeth are wired with thin threads, and neck skin is disinfected with 75% alcohol. • (3) A subcutaneous tissue is separated along a longitudinal incision in a middle of the mouse neck until a cartilage ring appeared in an exposed trachea. • (4) A microinjector is inserted into the trachea in parallel towards a proximal end for about 1 centimeter (cm). Sterile NS is slowly dripped into the trachea of the control group, and LPS is dripped into the trachea of the other groups. • (5) After pulling out the microinjector, the mice are upright immediately, rotated and shaken evenly for 2 minutes (min), then the neck wound is sutured, and the state of the mice is observed. After the mice are awake, they are raised as usual. 2.3 Treatment of Experimental Animals and Collection of Lung Tissue Specimens
as §4, with “measured. The lung tissues are packaged for hematoxylin and eosin (HE) staining, MDA and SOD content determination, gene and protein detection.” for “measured.”

[4] = Gen-17 groups (12.5, 25, 50 mg/kg gavage) compared with LPS group
[5] = high-dose Gen-17 50 mg/kg gavage

With COC(=O)C1=CO[C@@H](OC)[C@@H]2C(COC(=O)c3cccc(Br)c3)=CC[C@H]12 [Gen-17, genipin beta-methyl derivative] the “expression of phosphorylated protein p38 in lung tissue” value ([1]; Gen-17 groups (12.5, 25, 50 mg/kg gavage) compared with DEX group (P>0.05)) was “no statistically significant change”, the “expression of p38 phosphorylated protein in lung tissue” value ([1]; after drug treatment, compared with LPS group) was “down-regulate the expression of p38, ERK and JNK proteins” and the “expression of p38 phosphorylated protein in lung tissue, statistical significance of decrease” value ([1]; low-dose Gen-17 12.5 mg/kg gavage, compared with LPS group, excepted from significance (P<0.05)) was “except for the low-dose Gen-17 group”. The “expression of HO-1 gene in lung tissue” value (HO-1; Gen-17 compared with DEX group (P<0.001)) was “statistically significant in upregulating the expression of HO-1 gene”, the “expression of HO-1 gene in lung tissue” value (HO-1; Gen-17 group compared with NS group) was “significantly decreased (P<0.001)” and the “content of IL-6 in BALF” value (IL-6; [4]) was “reduce the contents of inflammatory cytokines”. The “IL-6 level in BALF” value (IL-6; low-dose Gen-17 12.5 mg/kg gavage, compared with DEX group (P<0.01)) was “statistically significant reduction”, the “SOD activity in lung tissue” value (SOD; after drug treatment) was “significantly increase the SOD activity” and the “SOD activity in lung tissue (increase)” value (SOD; [5]) was “statistical significance (P<0.05)”. For the same compound, the “reduction of the TNF-α level in BALF” value (TNF-α; Gen-17 compared with DEX group (P>0.05)) was “no statistically significant difference”, the “content of TNF-α in BALF” value (TNF-α; [4]) was “reduce the contents of inflammatory cytokines” and the “total protein content in BALF” value (LPS-induced ALI mice [2]; [5]) was “significantly reduced”. For the same compound, the “total protein content in BALF” value (LPS-induced ALI mice [2]; low-dose Gen-17 12.5 mg/kg gavage) was “significantly reduced”, the “total protein content in BALF” value (LPS-induced ALI mice [2]; middle-dose Gen-17 25 mg/kg gavage) was “significantly reduced” and the “degree of pulmonary edema (lung index), overall result” value (LPS-induced ALI mice [3]; Gen-17 12.5, 25, 50 mg/kg gavage, ALI mice) was “reduce the degree of pulmonary edema in ALI mice to varying degrees”. For the same compound, the lung index (LPS-induced ALI mice [3]; Gen-17 groups (12.5, 25, 50 mg/kg gavage) compared with NS group) was “statistically significant (P<0.05)”, the lung index (LPS-induced ALI mice [3]; high-dose Gen-17 50 mg/kg gavage, compared with LPS group) was “statistically significant (P<0.01)” and the lung index (LPS-induced ALI mice [3]; low-dose Gen-17 12.5 mg/kg gavage, compared with DEX group (P<0.05)) was “increases most significantly”. The lung index (LPS-induced ALI mice [3]; medium-dose Gen-17 25 mg/kg gavage, compared with LPS group) was “statistically significant (P<0.01)”.
